# Data published in BindingDB's records for doi:10.1016/S0960-894X(01)80380-2 (1994).
# pIC50: −log10 of the molar value.
# Assay: Inhibition of ADP-mediated platelet aggregation in human gel-filtered platelets
row,SMILES,pIC50
1,O=C(O)CCNC(=O)c1cc(C(=O)NCCC2CCNCC2)ccn1 [3-{[4-(2-Piperidin-4-yl-ethylcarbamoyl)-pyridine-2-carbonyl]-amino}-propionic acid],5.96
2,O=C(O)CCNC(=O)c1cncc(C(=O)NCCC2CCNCC2)c1 [3-{[5-(2-Piperidin-4-yl-ethylcarbamoyl)-pyridine-3-carbonyl]-amino}-propionic acid],5.70
3,"O=C(O)CCN1Cc2ccc(C(=O)NCCC3CCNCC3)cc2C1=O [3-[1-Oxo-6-(2-piperidin-4-yl-ethylcarbamoyl)-1,3-dihydro-isoindol-2-yl]-propionic acid]",5.00

# Next, values leading:
row,pIC50,SMILES
1,3.52,O=C(O)CCNC(=O)c1cccc(C(=O)NCCC2CCNCC2)n1 [3-{[6-(2-Piperidin-4-yl-ethylcarbamoyl)-pyridine-2-carbonyl]-amino}-propionic acid]
2,5.80,O=C(O)CCNC(=O)c1ccnc(C(=O)NCCC2CCNCC2)c1 [3-{[2-(2-Piperidin-4-yl-ethylcarbamoyl)-pyridine-4-carbonyl]-amino}-propionic acid]
3,6.28,O=C(O)CCNC(=O)c1cccc(C(=O)NCCC2CCNCC2)c1 [3-[3-(2-Piperidin-4-yl-ethylcarbamoyl)-benzoylamino]-propionic acid]
